Active and inactive are the calls of the source. No cut-off for these calls is given here.
system: Mus musculus; assay: Analgetic activity against CF-1 mouse assessed as increase in reaction time at 320 mg/kg, po by heat stimulus induced tail flick response assay; assay type: functional, organism-based; set-up: dose 320 mg/kg; settings: not given

SMILES	Activity
CC1C2Cc3ccc(O)cc3C1(c1ccccc1)CCN2CCC(c1ccccc1)c1ccccc1 (stereo in doubt; 166)	inactive
CC1C2Cc3ccc(O)cc3C1(c1ccccc1)CCN2C/C=C/Cl (centres undefined)	inactive
Oc1ccc2c(c1)C1(c3ccccc3)CCN(C/C=C/c3ccccc3)C(C2)C1 (racemic)	Active
C=CCN1CCC2(c3ccccc3)CC1Cc1ccc(O)cc12 (stereo in doubt; 146) [listing 1 of 2 here]	inactive
CC1C2Cc3ccc(O)cc3C1(c1ccccc1)CCN2C(=O)C1CC1 (centres undefined)	inactive
Br.Clc1ccc(C23CCN(CCc4ccccc4)C(Cc4ccccc42)C3)cc1 (racemic)	inactive
CN1CCC2(c3ccc(O)cc3)CC1Cc1ccc(O)cc12 (racemic)	inactive
Br.Oc1ccc2c(c1)C1(c3ccccc3)CCN(CCN3CCOCC3)C(C2)C1 (racemic)	inactive
CC1C2Cc3ccc(O)cc3C1(c1ccccc1)CCN2CCC(C#N)(c1ccccc1)c1ccccc1 (stereo in doubt; 167) [listing 1 of 2 here]	inactive
Oc1ccc2c(c1)C1(c3ccccc3)CCN(CCc3cccs3)C(C2)C1 (racemic)	inactive
CC1C2Cc3ccc(O)cc3C1(c1ccccc1)CCN2CCC(c1ccccc1)c1ccccc1 (stereo in doubt; 188)	inactive
C[C@@H]1C2Cc3ccc(O)cc3C1(c1ccccc1)CCN2CCC(O)(c1ccccc1)c1ccccc1 (some centres undefined)	inactive
Oc1ccc2c(c1)C1(c3ccccc3)CCNC(C2)C1 (centres undefined)	inactive
CC1C2Cc3ccc(O)cc3C1(c1ccccc1)CCN2 (stereo in doubt; 112)	inactive
Oc1ccc(C23CCNC(Cc4ccc(O)cc42)C3)cc1 (racemic)	inactive

system: Mus musculus; assay: Analgetic activity in po dosed CF1S mouse assessed as writhing by phenylquinone writhing test; assay type: functional; settings: not given

SMILES	ED50
Cl.Oc1ccc2c(c1)C1(c3ccccc3)CCN(CC3CCC3)C(C2)C1 (stereo in doubt; 145)	34 mg/kg
Cl.Oc1ccc2c(c1)C1(c3ccccc3)CCN(CC3CCC3)C(C2)C1 (racemic)	124 mg/kg

same assay, conditions: Mus musculus, CF1S, po; read-out: ED50

SMILES	ED50
Br.CC1C2Cc3ccc(O)cc3C1(c1ccccc1)CCN2CC1COc2ccccc2O1 (centres undefined)	> 100 mg/kg
CCCCC(=O)Oc1ccc2c(c1)C1(c3ccccc3)CCN(CC3CCC3)C(C2)C1.Cl (racemic)	> 100 mg/kg
CC1C2Cc3ccc(O)cc3C1(c1ccccc1)CCN2CCC(C#N)(c1ccccc1)c1ccccc1 (stereo in doubt; 167) [listing 2 of 2 here]	> 100 mg/kg
CCCN1CCC2(c3ccccc3)c3cc(O)ccc3CC1C2C.Cl (stereo in doubt; 163)	> 100 mg/kg
CC1C2Cc3ccc(O)cc3C1(c1ccccc1)CCN2CC1CCC1.CS(=O)(=O)O (racemic)	> 100 mg/kg
COc1ccc2c(c1)C1(c3ccccc3)CCN(CC3CCC3)C(C2)C1.Cl.O (racemic)	> 100 mg/kg
CC1C2Cc3ccc(O)cc3C1(c1ccccc1)CCN2C(=O)C12CC3CC(CC(C3)C1)C2.O (centres undefined)	> 100 mg/kg
CC(C)O.Cl.Oc1ccc2c(c1)C1(c3ccccc3)CCN(CC3CC3)C(C2)C1 (racemic)	107 mg/kg
CC1C2Cc3ccc(O)cc3C1(c1ccccc1)CCN2CC1CCC1.Cl (stereo in doubt; 219)	300 mg/kg
CC1C2Cc3ccc(O)cc3C1(c1ccccc1)CCN2CCO (racemic)	> 100 mg/kg
Cl.O=C(CCCN1CCC2(c3ccccc3)CC1Cc1ccccc12)c1ccc(F)cc1 (racemic)	> 150 mg/kg
CC(=O)CCN1CCC2(c3ccccc3)c3cc(O)ccc3CC1[C@H]2C.CS(=O)(=O)O (some centres undefined)	> 100 mg/kg
CCCCCN1CCC2(c3ccccc3)c3cc(O)ccc3CC1C2C (centres undefined)	> 100 mg/kg
CC1C2Cc3ccc(O)cc3C1(c1ccccc1)CCN2CCc1cccs1.Cl.O (centres undefined)	> 100 mg/kg

system: Mus musculus; assay: Analgetic activity in sc dosed CF1S mouse assessed as writhing by phenylquinone writhing test; assay type: functional; settings: not given

SMILES	ED50
C=CCN1CCC2(c3ccccc3)CC1Cc1ccc(O)cc12 (stereo in doubt; 143)	>80 mg/kg
C=CCN1CCC2(c3ccccc3)CC1Cc1ccc(O)cc12 (racemic)	>100 mg/kg
CCCN1CCC2(c3ccccc3)c3cc(O)ccc3CC1C2C.Cl (stereo in doubt; 163)	14 mg/kg
CC(C)=CCN1CCC2(c3ccccc3)c3cc(O)ccc3CC1C2C.Cl (stereo in doubt; 169)	41 mg/kg
CC1C2Cc3ccc(O)cc3C1(c1ccccc1)CCN2CC1CCC1.Cl (stereo in doubt; 219)	28 mg/kg
Cl.Oc1ccc2c(c1)C1(c3ccccc3)CCN(CC3CCC3)C(C2)C1 (stereo in doubt; 145)	2.8 mg/kg
CN1CCC2(c3ccccc3)CC1Cc1ccccc12.O=C(O)C(O)C(O)C(=O)O (stereo in doubt; 37)	8 mg/kg
CC(C)O.CC1C2Cc3ccc(O)cc3C1(c1ccccc1)CCN2CC1CC1.Cl (stereo in doubt; 218)	>100 mg/kg
CN1CCC2(c3ccccc3)CC1Cc1ccc(O)cc12.Cl (stereo in doubt; 42)	5.6 mg/kg
CC1C2Cc3ccc(O)cc3C1(c1ccccc1)CCN2CC1CCC1.Cl (stereo in doubt; 171)	>100 mg/kg
C=CCN1CCC2(c3ccccc3)CC1Cc1ccc(O)cc12 (stereo in doubt; 146) [listing 2 of 2 here]	>30 mg/kg
CCCN1CCC2(c3ccccc3)c3cc(O)ccc3CC1C2C.Cl (stereo in doubt; 173)	>100 mg/kg
Cl.Oc1ccc2c(c1)C1(c3ccccc3)CCN(CC3CCC3)C(C2)C1 (racemic)	6.2 mg/kg
CC(C)O.Cl.Oc1ccc2c(c1)C1(c3ccccc3)CCN(CC3CC3)C(C2)C1 (stereo in doubt; 144)	>33 mg/kg

same assay, conditions: Mus musculus, CF1S, sc; read-out: ED50

SMILES	ED50
Br.CC1C2Cc3ccc(O)cc3C1(c1ccccc1)CCN2CC1COc2ccccc2O1 (centres undefined)	84 mg/kg
CC1C2Cc3ccc(O)cc3C1(c1ccccc1)CCN2C/C=C/Cl (centres undefined)	> 100 mg/kg
CC1C2Cc3ccc(O)cc3C1(c1ccccc1)CCN2C1CCCC1.Cl (centres undefined)	120 mg/kg
Cl.Oc1ccc2c(c1)C1(c3ccccc3)CCN(CC3CC3)C(C2)C1 (centres undefined)	15 mg/kg
CC1C2Cc3ccc(O)cc3C1(c1ccccc1)CCN2CCCN(C)C (centres undefined)	> 120 mg/kg
CC1C2Cc3ccc(OC(=O)c4c(Cl)cccc4Cl)cc3C1(c1ccccc1)CCN2C (centres undefined)	> 100 mg/kg
CC1C2Cc3ccc(O)cc3C1(c1ccccc1)CCN2C(=O)C12CC3CC(CC(C3)C1)C2 (centres undefined)	> 100 mg/kg
CC1C2Cc3ccc(O)cc3C1(c1ccccc1)CCN2CCC(C#N)(c1ccccc1)c1ccccc1 (stereo in doubt; 167) [listing 2 of 2 here]	110 mg/kg
CN1CCC2(c3ccccc3)CC1Cc1ccc(O)cc12.Cl (stereo in doubt; 43)	5.5 mg/kg
CC1C2Cc3ccc(O)cc3C1(c1ccccc1)CCN2C(=O)C1CC1 (centres undefined)	> 100 mg/kg
Cc1ccc(S(=O)(=O)Oc2ccc3c(c2)C2(c4ccccc4)CCN(C)C(C3)C2C)cc1.Cl (centres undefined)	> 100 mg/kg
CC(C)=CCN1CCC2(c3ccccc3)c3cc(OS(=O)(=O)c4ccc(C)cc4)ccc3CC1C2C (centres undefined)	> 100 mg/kg
Br.Clc1ccc(C23CCN(CCc4ccccc4)C(Cc4ccccc42)C3)cc1 (racemic)	> 100 mg/kg
Oc1ccc2c(c1)C1(c3ccccc3)CCNC(C2)C1 (racemic)	> 100 mg/kg
Br.Oc1ccc2c(c1)C1(c3ccccc3)CCN(CCN3CCOCC3)C(C2)C1 (racemic)	> 100 mg/kg
C[C@@H]1C2Cc3ccc(O)cc3C1(c1ccccc1)CCN2C (some centres undefined)	0.5 mg/kg
CC(C)O.CC1C2Cc3ccc(O)cc3C1(c1ccccc1)CCN2CC1CC1.Cl (stereo in doubt; 170)	100 mg/kg
C[C@@H]1C2Cc3ccc(O)cc3C1(c1ccccc1)CCN2CCC(O)(c1ccccc1)c1ccccc1 (some centres undefined)	> 100 mg/kg
CC1C2Cc3ccc(OC(=O)c4ccccc4)cc3C1(c1ccccc1)CCN2C (centres undefined)	0.5 mg/kg
CC(C)O.Cl.Oc1ccc2c(c1)C1(c3ccccc3)CCN(CC3CC3)C(C2)C1 (racemic)	33 mg/kg
CC(C)=CCN1CCC2(c3ccccc3)c3cc(O)ccc3CC1C2C.Cl (stereo in doubt; 207)	39 mg/kg
CC1C2Cc3ccc(O)cc3C1(c1ccccc1)CCN2CCO (racemic)	44 mg/kg

SMILES	ED50
CC(C)=CCN1CCC2(c3ccccc3)c3cc(OC(=O)c4ccccc4)ccc3CC1C2C (centres undefined)	> 100 mg/kg
CC1C2Cc3ccc(O)cc3C1(c1ccccc1)CCN2C (centres undefined)	4.2 mg/kg
CC1C2Cc3ccc(OC(=O)c4ccc([N+](=O)[O-])cc4)cc3C1(c1ccccc1)CCN2C (centres undefined)	0.6 mg/kg
CC(C)O.Oc1ccc2c(c1)C1(c3ccccc3)CCNC(C2)C1 (centres undefined)	> 100 mg/kg
C=CCN1CCC2(c3ccccc3)c3cc(O)ccc3CC1C2C.CCCO.Cl (centres undefined)	> 100 mg/kg
C/C(Cl)=C/CN1CCC2(c3ccccc3)CC1Cc1ccc(O)cc12 (racemic)	> 100 mg/kg
Br.CC1C2Cc3ccc(O)cc3C1(c1ccccc1)CCN2CCC(c1ccccc1)c1ccccc1.O (stereo in doubt; 166)	> 100 mg/kg
Cl.Oc1ccc2c(c1)C1(c3ccccc3)CCN(CCc3ccccc3)C(C2)C1 (centres undefined)	7.4 mg/kg
C#CCN1CCC2(c3ccccc3)c3cc(OC)ccc3CC1C2C (centres undefined)	> 100 mg/kg
C[C@@H]1C2Cc3ccc(OS(C)(=O)=O)cc3C1(c1ccccc1)CCN2C (some centres undefined)	5.3 mg/kg
C[C@@H]1C2Cc3ccc(O)cc3C1(c1ccccc1)CCN2CC(=O)O (some centres undefined)	> 100 mg/kg
CC(C)=CCN1CCC2(c3ccccc3)c3cc(OC(=O)c4c(Cl)cccc4Cl)ccc3CC1C2C (centres undefined)	> 100 mg/kg
CC1C2Cc3ccc(OC(=O)c4ccc(F)cc4)cc3C1(c1ccccc1)CCN2C (centres undefined)	0.7 mg/kg
COc1ccc2c(c1)C1(c3ccccc3)CCN(C)C(C2)C1 (racemic)	14 mg/kg
CC(C)=CCN1CCC2(c3ccccc3)CC1Cc1ccc(O)cc12 (racemic)	15 mg/kg
CS(=O)(=O)O.c1ccc(CCN2CCC3(c4ccccc4)CC2Cc2ccccc23)cc1 (centres undefined)	> 100 mg/kg
CN1CCC2(c3ccccc3)CC1Cc1ccccc12.O=C(O)C(O)C(O)C(=O)O (stereo in doubt; 36)	5.5 mg/kg
Br.CC1C2Cc3ccc(O)cc3C1(c1ccccc1)CCN2CC(=O)c1ccccc1 (centres undefined)	> 100 mg/kg
C=C(Br)CN1CCC2(c3ccccc3)CC1Cc1ccc(O)cc12 (racemic)	> 100 mg/kg
COc1ccc2c(c1)C1(c3ccccc3)CCN(C)C(C2)C1.Cl.O (centres undefined)	16 mg/kg
C#CCN1CCC2(c3ccccc3)CC1Cc1ccc(OC(=O)c3ccccc3)cc12 (racemic)	> 100 mg/kg
CC1C2Cc3ccc(O)cc3C1(c1ccccc1)CCN2CCc1cccs1.Cl.O (centres undefined)	> 100 mg/kg
